Experimental data reported in patent US20220213047A1, “CARBONIC ANHYDRASE INHIBITORS FOR TREATMENT OF NEISSERIA GONORRHOEAE INFECTION” (Purdue Research Foundation, priority 2021, published 2022).
≈ marks a conversion by molar mass, not a printed value.

How the values were obtained:
ATCC strain 700825 = assay: MICs against ATCC strain 700825; format: cell-based, N. gonorrhoeae; details: Neisseria gonorrhoeae
Experimental: These tests were performed in normal culture conditions with standard CO2 levels and in CO2 (5% in incubator) conditions.

Klebsiella spp. = assay: MIC50 against pathogenic and commensal bacteria: Klebsiella spp.; format: cell-based; details: Klebsiella spp. (4 strains); normal
Excerpt: (§1) We have shown that CAIs display a narrow-spectrum of activity (Table 6). We have previously shown that CAIs have potential as anti-enterococcal agents for decolonization of the gut and treating systemic vancomycin-resistant enterococci (VRE) infections without affecting commensal strains common in the human microbiome or other pathogenic bacteria. […] The extremely narrow spectrum of this class of inhibitors would be a positive for clinical use as the molecules: 1) would not have deleterious effects on normal microbiota, and 2) would have less opportunity for resistance to arise to other important pathogenic strains aside from VRE.

L. rhamnosus = assay: MIC50 against pathogenic and commensal bacteria: L. rhamnosus; format: cell-based; details: Lacticaseibacillus rhamnosus; L. rhamnosus (1 strain); normal
Excerpt: as §1

L. jensenii = assay: MIC50 against pathogenic and commensal bacteria: L. jensenii; format: cell-based; details: Lactobacillus jensenii; L. jensenii (3 strains); normal
Excerpt: as §1

N. gonorrhoeae [1] = assay: Checkerboard assay, synergy with AZI; format: cell-based; details: combination with AZI, standard checkerboard assay
Excerpt: CAIs work synergistically with approved antibiotics—Dual therapy with ceftriaxone and azithromycin is the recommended approach to treat infections caused by N. gonorrhoeae. The use of two antibiotics in conjunction is thought to curb the rapid emergence of resistance to either antibiotic, if used alone. Thus, we investigated the potential of CAIs to be used in combination with other antibiotics against N. gonorrhoeae^56 (FIG. 5).

L. johnsonii = assay: MIC50 against pathogenic and commensal bacteria: L. johnsonii; format: cell-based; details: Lactobacillus johnsonii; L. johnsonii (1 strain); normal
Excerpt: as §1

N. gonorrhoeae [2] = assay: Post-antibiotic effect (PAE); format: cell-based; details: after exposure to 10×MIC for 1 hour

CCOc1ccc2nc(S(N)(=O)=O)sc2c1 [Ethoxzolamide]
MIC (ATCC strain 700825; ATCC700825, In CO2): 64 µg/mL (≈ 248 µM)
MIC (ATCC strain 700825; ATCC700825, In air): 0.5 µg/mL (≈ 1.94 µM)
MIC50 (Klebsiella spp.): > 256 µg/mL
MIC50 (L. rhamnosus): > 256 µg/mL
MIC50 (L. jensenii): > 256 µg/mL
FIC (N. gonorrhoeae [1]): 0.240
MIC50 (L. johnsonii): > 256 µg/mL
PAE (N. gonorrhoeae [2]; Ng 181): 10 h
PAE (N. gonorrhoeae [2]; Ng 186): 10 h
PAE (N. gonorrhoeae [2]; Ng 194): 10 h
PAE (N. gonorrhoeae [2]; Ng 198): 10 h
PAE (N. gonorrhoeae [2]; clinical isolates of N. gonorrhoeae): 10 h
